{
  "source": "patent US20170211147A1",
  "about": "“METHOD OF PREDICTING REACTION TO SORAFENIB TREATMENT USING GENE POLYMORPHISM” (National Cancer Center, priority 2014, published 2017)",
  "key": {"liver cancer patients": {"tested_on": "liver cancer patients", "assay": "Progression-free survival with sorafenib treatment by SLC15A2 genotype (Kaplan-Meier, Cox proportional hazard model)", "format": "in vivo, human", "text": "Five coding variants were identified in the SLC15A2 gene by NGS analysis, and three non-synonymous SNVs (L350F, P409S and R509K), which may cause a functional alternation in gene product, were selected so as to analyze genotypes for 233 liver cancer patients that had received sorafenib treatment over 6 weeks.\nAlso, to confirm SNPs to be analyzed, 249 patients treated with sorafenib were genotyped using the MassARRAY system (Sequenom, San Diego, Calif., USA), thereby obtaining three SNP genotypes (C/C, C/T and T/T).\nSpecifically, the association between generic polymorphisms and risk for progression was assessed by a Cox proportional hazard model with adjustment by stage of hepatocellular carcinoma (HCC). Also, analyses of data obtained were performed using STATA version 10.1 (Stata Corp, College Station, Tex., USA)."}, "Hep3B cell line": {"tested_on": "Hep3B cell line", "assay": "MTT assay, cell viability after sorafenib treatment", "format": "cell-based, human", "conditions": "C/C genotype, sorafenib for 48 hours", "method": "(§1) First, human hepatocellular carcinoma (HCC)-derived cell lines such as Hep3B, SNU182 and PLC/PRFS cell lines were purchased from Korean Cell Line Bank (KCLB, Seoul, Republic of Korea), and genomic DNA was extracted from the cell lines derived from human HCC using a MagAttract DNA mini M48 kit (Qiagen) according to a user manual of the kit.\n(§2) Afterward, to confirm the sorafenib response in each cell line according to the SLC15A2 gene nucleotide polymorphism, each cell line was cultured in RPMI-1640 (Invitrogen, Carlsbad, Calif., USA) with 10%(v/v) fetal bovine serum (FBS) and 100 U/ml penicillin-streptomycin at 37° C. in 5% CO2. Next, for the MTT assay, cells obtained by the above-described culture were plated on 96-well plates at a density of 1×10^4 cells/well and treated with sorafenib for 48 hours in the RPMI-1640 used above.\n(§3) Then, the number of viable cells was measured by performing the MTT assay (Promega Fitchburg, Wis., USA) according to a user manual of the MTT assay."}, "PLC/PRFS cell line": {"tested_on": "PLC/PRFS cell line", "assay": "MTT assay, cell viability after sorafenib treatment", "format": "cell-based, human", "conditions": "C/T genotype", "method": "as §1, §2, §3"}, "SNU182 cell line": {"tested_on": "SNU182 cell line", "assay": "MTT assay, cell viability after sorafenib treatment", "format": "cell-based, human", "conditions": "SNU182, T/T genotype", "method": "as §1, §2, §3"}},
  "data": [
    {"smiles": "CNC(=O)c1cc(Oc2ccc(NC(=O)Nc3ccc(Cl)c(C(F)(F)F)c3)cc2)ccn1", "note": "[sorafenib]", "values": [
      {"measurement": "progression-free survival (accumulative hazard ratio)", "setting": "liver cancer patients", "result": 2.46},
      {"measurement": "response to sorafenib treatment", "setting": "liver cancer patients; subjects with C/T or T/T genotype compared with C/C genotype", "result": "stronger response"},
      {"measurement": "proliferation", "setting": "Hep3B cell line", "result": "dose-dependently inhibited"},
      {"measurement": "response to sorafenib compared with Hep3B cell line (C/C genotype)", "setting": "PLC/PRFS cell line; 48 hours", "result": "stronger response"},
      {"measurement": "proliferation", "setting": "PLC/PRFS cell line; sorafenib for 48 hours", "result": "dose-dependently inhibited"},
      {"measurement": "response to sorafenib compared with Hep3B cell line (C/C genotype)", "setting": "SNU182 cell line; 48 hours", "result": "stronger response"},
      {"measurement": "proliferation", "setting": "SNU182 cell line; sorafenib for 48 hours", "result": "dose-dependently inhibited"}
    ]}
  ]
}
